Data reported in ChEMBL document CHEMBL1201862, “PubChem BioAssay data set” (2004).
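Method: 48-hour compound exposure of cells in 96-well plates, five concentrations, linear interpolation of endpoints. GI50 is the concentration that inhibits growth by half.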 Active and inactive are the calls of the source. Cut-off read from the data, not from the text of the source: active = GI50 up to about 1.1 µM and inactive = higher.

Columns and labels:
Test in all cases: inhibition of tumour cell growth, NCI panel, 48 h
Hs-578T = tested on: Hs-578T
T47D = tested on: T47D
MDA-N = tested on: MDA-N
DMS-273 = tested on: DMS-273
KM-20L2 = tested on: KM-20L2
M19-MEL = tested on: M19-MEL
SNB-78 = tested on: SNB-78
HOP-18 = tested on: HOP-18

| SMILES | GI50 (Hs-578T) | GI50 (T47D) | GI50 (MDA-N) | GI50 (DMS-273) | GI50 (KM-20L2) | GI50 (M19-MEL) | GI50 (SNB-78) | GI50 (HOP-18) |
| --- | --- | --- | --- | --- | --- | --- | --- | --- |
| CN1CCN(c2ccc3nc(C4=C(O)C(=O)c5c(nc(CO)n5C)C4=O)[nH]c3n2)CC1 | > 100 µM (inactive) | 61.4 µM (inactive) | – | – | – | – | – | – |
| COc1ccc(/C=C2\OC(=O)C(Cl)=C2c2ccc(OC)cc2)cc1 | > 100 µM (inactive) | > 100 µM (inactive) | > 100 µM (inactive) | – | – | – | – | – |
| C(/Cc1ccc2c(c1)OCO2)=N\N=C1NCCN1 | > 100 µM (inactive) | 90.6 µM (inactive) | – | – | – | – | – | – |
| CS/C(=N/C#N)NCCc1c[nH]c2ccccc12 | – | – | – | > 100 µM (inactive) | 44.9 µM (inactive) | > 100 µM (inactive) | > 100 µM (inactive) | – |
| O=C(/C=C1\C[C@H]2C=Nc3ccccc3C(=O)N2C1)NCCCCNC(=O)/C=C1\C[C@H]2C=Nc3ccccc3C(=O)N2C1 | 29.4 µM (inactive) | 4.39 µM (inactive) | 11 µM (inactive) | – | – | – | – | – |
| COC(=O)C(C(=O)C(=O)Nc1ccc(C)cc1)c1nc2ccc([N+](=O)[O-])cc2nc1O (configuration not stated) | – | – | – | > 100 µM (inactive) | > 100 µM (inactive) | > 100 µM (inactive) | > 100 µM (inactive) | > 100 µM (inactive) |
| CCCCCCc1cc2cc(-c3cn4ccccc4n3)c(=O)oc2cc1O | 4.14 µM (inactive) | 19.2 µM (inactive) | 6.17 µM (inactive) | – | – | – | – | – |
| CC(=O)OCC1OC(O[C@@H]2c3c(O)c4c(c(O)c3C3=C(NN(c5ccc([N+](=O)[O-])cc5[N+](=O)[O-])[Se]3=O)[C@@]2(C)O)C(=O)c2ccccc2C4=O)C(OC(C)=O)C(OC(C)=O)C1OC(C)=O (some centres not stated) | 0.303 µM (active) | 0.286 µM (active) | 0.273 µM (active) | – | – | – | – | – |
| CN1CCc2c(sc3ncn(C)c(=N)c23)C1 | > 100 µM (inactive) | > 100 µM (inactive) | > 100 µM (inactive) | – | – | – | – | – |
| [O-]c1c2cc(-[n+]3c(-c4ccccc4)cc(-c4ccccc4)cc3-c3ccccc3)cc1CO[C@@H](c1ccccc1)[C@H](c1ccccc1)OCc1cccc(n1)CO[C@@H](c1ccccc1)[C@H](c1ccccc1)OC2 | 0.676 µM (active) | 0.111 µM (active) | 0.0548 µM (active) | – | – | – | – | – |
| CCCCCCNC(=O)c1cc(NCc2cc(OC)ccc2OC)ccc1O | 28 µM (inactive) | 13.5 µM (inactive) | 18.9 µM (inactive) | – | – | – | – | – |
| COc1ccc(NC/C=C/C(=C/COC(C)=O)OC(C)=O)cc1 | 2.12 µM (inactive) | 2.41 µM (inactive) | 2.05 µM (inactive) | – | – | – | – | – |
| C=CC1(CBr)CCC(C(C)(C)Br)O1 (configuration not stated) | 12.6 µM (inactive) | 2.28 µM (inactive) | 8.57 µM (inactive) | – | – | – | – | – |
| O=C1OC(OCC#CCOC2OC(=O)C(Cl)=C2Cl)C(Cl)=C1Cl (configuration not stated) | 13.2 µM (inactive) | 10.7 µM (inactive) | – | – | – | – | – | – |
| COc1cc(/C=C(\C#N)C(=O)c2ccccc2)ccc1OCc1ccccc1 | – | – | – | – | > 100 µM (inactive) | > 100 µM (inactive) | > 100 µM (inactive) | – |
| Cc1nn(C(=O)Cc2ccccc2)c2c1C(c1ccccc1[N+](=O)[O-])SC(=N)N2 (configuration not stated) | > 100 µM (inactive) | > 100 µM (inactive) | > 100 µM (inactive) | – | – | – | – | – |
| CCOC(=O)CN1C(=O)c2ccc(NC(=O)C(=O)O)cc2S1(=O)=O | > 100 µM (inactive) | > 100 µM (inactive) | > 100 µM (inactive) | – | – | – | – | – |
| O=S(O)CCCSSc1ccccc1 | – | – | – | 30.8 µM (inactive) | 51.1 µM (inactive) | 39.4 µM (inactive) | 32.7 µM (inactive) | > 100 µM (inactive) |
| CCN(CC)CCC(=O)c1ccc(Cl)c(Cl)c1 | 17.1 µM (inactive) | 18.6 µM (inactive) | > 10 µM (inactive) | – | – | – | – | – |
| CCCc1c(C(=O)OCC)[nH]c(C(=O)CCC(=O)c2[nH]c(C(=O)OCC)c(CCC)c2C(=O)OCC)c1C(=O)OCC | – | – | – | 84.5 µM (inactive) | > 100 µM (inactive) | > 100 µM (inactive) | > 100 µM (inactive) | > 100 µM (inactive) |
| O=C(Cc1ccccc1)NN1C(=O)C(Cl)C1c1ccccc1Cl (configuration not stated) | – | – | – | 72.8 µM (inactive) | 98.6 µM (inactive) | > 100 µM (inactive) | 83.6 µM (inactive) | > 100 µM (inactive) |
| CC(=O)c1cccc(N2COC(C)(C)c3nc4ccccc4n3C2)c1 | – | – | – | > 100 µM (inactive) | > 100 µM (inactive) | > 100 µM (inactive) | > 100 µM (inactive) | > 100 µM (inactive) |
| c1csc(-c2cscc2-c2ccsc2)c1 | 20.4 µM (inactive) | > 55.1 µM (inactive) | 33.3 µM (inactive) | – | – | – | – | – |
| CCOC1=NC(C(F)(F)F)(C(F)(F)F)N=C(N2CCCCC2)O1 | > 100 µM (inactive) | > 100 µM (inactive) | – | – | – | – | – | – |
| O=C(/C=C1\N=C(c2ccccc2)N(c2ccc3c(c2)Sc2cc(N4C(=O)/C(=C/C(=O)/C=C/c5ccccc5)N=C4c4ccccc4)ccc2N3)C1=O)/C=C/c1ccccc1 | 33.2 µM (inactive) | 63.7 µM (inactive) | – | – | – | – | – | – |
| COc1cc(C(c2cccc3ccccc23)N2C(=O)CCC2C(=O)NCc2ccccc2)cc(OC)c1OC (configuration not stated) | 83.6 µM (inactive) | > 100 µM (inactive) | > 100 µM (inactive) | – | – | – | – | – |
| O=C1C(Cl)=C(NCCO)C(=O)c2c(O)ccc(O)c21 | 6.56 µM (inactive) | 4.24 µM (inactive) | 1.77 µM (inactive) | – | – | – | – | – |
